Values of other authors in patent EP1382610A2, “Conductive metal-containing nucleic acids” (The University of Saskatchewan, priority 1997, dated 1999).

Details: imino protons

For `Nc1nc2nc[nH]c2c(=O)[nH]1` [G, guanine], the pKa is listed as 9.4.
In the case of `Cc1c[nH]c(=O)[nH]c1=O` [T, thymine], the pKa is given as 9.9.
